The values below come from patent US4729991A, “Cephem compounds” (Fujisawa Pharmaceutical Co., Ltd., priority 1978, dated 1988).

In brackets after ≈: the same amount, converted by molar mass.

Holding throughout (assay): In vitro antibacterial activity, two-fold agar-plate dilution method
Holding throughout (format): cell-based

Experiment [1] concerns Pseudomonus aeruginosa NCTC-10490. The conditions noted are these: HI-agar, 37° C., 20 hours. As for the experimental part: (§1) (1) Test method In vitro antibacterial activity was determined by the two-fold agar-plate dilution method as described below. One loopful of an overnight culture of each test strain in Trypticase-soy broth was streaked on heart infusion agar (HI-agar) containing graded concentrations of the test compound and incubated at 37° C. for 20 hours. The minimal inhibitory concentration (MIC) was expressed in μg/ml.

Experiment [2] relates to Escherichia coli NIHJ JC-2. Conditions: NIHJJC2, HI-agar, 37° C., 20 hours. On the procedure: as §1
A further experiment deals with Klebsiella pneumoniae 20. The conditions noted are these: HI-agar, 37° C., 20 hours. As for the experimental part: as §1
The subject of the next experiment is Proteus mirabilis 18. Conditions: HI-agar, 37° C., 20 hours. As for the experimental part: as §1
Experiment [3] has as its system Staphylococcus aureus 209P JC-1. The conditions noted are these: HI-agar, 37° C., 20 hours. As for the experimental part: as §1
Experiment [4] deals with Proteus vulgaris IAM-1025. Conditions: IAM1025, HI-agar, 37° C., 20 hours. As for the experimental part:
as §1

As to `CO/N=C(\C(=O)NC1C(=O)N2C(C(=O)O)=C(COC(=O)c3ccccc3)CSC12)c1nc(N)sc1Br` (stereo not drawn) [compound 4, 7-[2-(2-amino-5-bromothiazol-4-yl)-2-methoxyiminoacetamido]-3-benzoyloxymethyl-3-cephem-4-carboxylic acid (syn isomer)], the MIC in experiment [1] is 6.25 µg/mL (≈ 10.5 µM); in experiment [2] it was 6.25 µg/mL (≈ 10.5 µM); against Klebsiella pneumoniae 20, 1.56 µg/mL (≈ 2.62 µM); against Proteus mirabilis 18, 3.13 µg/mL (≈ 5.25 µM); in experiment [3], 1.56 µg/mL (≈ 2.62 µM); in experiment [4], 12.5 µg/mL (≈ 21 µM).
`CO/N=C(\C(=O)NC1C(=O)N2C(C(=O)O)=C(CSc3nnnn3C)CSC12)c1nc(N)sc1Br` (stereo not drawn) [compound 3, 7-[2-(2-amino-5-bromothiazol-4-yl)-2-methoxyiminoacetamido]-3-(1-methyl-1H-tetrazol-5-ylthiomethyl)-3-cephem-4-carboxylic acid (syn isomer)]: the MIC in experiment [1] is 3.13 µg/mL (≈ 5.3 µM); in experiment [2], 1.56 µg/mL (≈ 2.64 µM); in the experiment on Klebsiella pneumoniae 20, 0.39 µg/mL (≈ 0.66 µM); against Proteus mirabilis 18, 3.13 µg/mL (≈ 5.3 µM); in experiment [3], 3.13 µg/mL (≈ 5.3 µM); in experiment [4], 12.5 µg/mL (≈ 21.2 µM).
As for `CO/N=C(\C(=O)NC1C(=O)N2C(C(=O)O)=C(CSc3nncs3)CSC12)c1nc(N)sc1Cl` (stereo not drawn) [compound 5, 7-[2-(2-amino-5-chlorothiazol-4-yl)-2-methoxyiminoacetamido]-3-(1,3,4-thiadiazol-2-ylthiomethyl)-3-cephem-4-carboxylic acid (syn isomer)], the MIC was determined as 1.56 µg/mL (≈ 2.85 µM) in experiment [1]; 1.56 µg/mL (≈ 2.85 µM) in experiment [2]; 0.39 µg/mL (≈ 0.712 µM) in the experiment on Klebsiella pneumoniae 20; 0.78 µg/mL (≈ 1.42 µM) in the experiment on Proteus mirabilis 18; 3.13 µg/mL (≈ 5.71 µM) in experiment [3]; 1.56 µg/mL (≈ 2.85 µM) in experiment [4].
Regarding `CO/N=C(\C(=O)NC1C(=O)N2C(C(=O)O)=C(CSc3nnc(C)s3)CSC12)c1nc(N)sc1Br` (stereo not drawn) [compound 2, 7-[2-(2-amino-5-bromothiazol-4-yl)-2-methoxyiminoacetamide]-3-(5-methyl-1,3,4-thiadiazol-2-ylthiomethyl)-3-cephem-4-carboxylic acid (syn isomer)], the MIC came out at 6.25 µg/mL (≈ 10.3 µM) in experiment [1]; 1.56 µg/mL (≈ 2.57 µM) in experiment [2]; 3.13 µg/mL (≈ 5.16 µM) in the experiment on Klebsiella pneumoniae 20; 6.25 µg/mL (≈ 10.3 µM) in the experiment on Proteus mirabilis 18; 3.13 µg/mL (≈ 5.16 µM) in experiment [3]; 12.5 µg/mL (≈ 20.6 µM) in experiment [4].
Turning to `CO/N=C(\C(=O)NC1C(=O)N2C(C(=O)O)=C(CSc3nncs3)CSC12)c1nc(N)sc1Br` (stereo not drawn) [compound 1, 7-[2-(2-amino-5-bromothiazol-4-yl)-2-methoxyiminoacetamido]-3-(1,3,4-thiadiazol-2-ylthiomethyl)-3-cephem-4-carboxylic acid (syn isomer)], the MIC in experiment [1] was found to be 3.13 µg/mL (≈ 5.28 µM); in experiment [2], 0.78 µg/mL (≈ 1.32 µM); against Klebsiella pneumoniae 20, 0.78 µg/mL (≈ 1.32 µM); with Proteus mirabilis 18, 0.78 µg/mL (≈ 1.32 µM); in experiment [3] it was 1.56 µg/mL (≈ 2.63 µM); in experiment [4], 6.25 µg/mL (≈ 10.5 µM).

As a reminder, the MIC is the least concentration at which growth counts as inhibited. A higher MIC goes with a less susceptible organism.
